≈ marks a conversion by molar mass, not a printed value. Where two headings read alike, the source gives them in different places.
Columns and labels:
[1] = system: S. aureus Human ATCC 25923; test: MIC determination, S. aureus human ATCC 25923; assay type: cell-based; conditions: Staphylococcus aureus, ATCC25923; Gram-positive; Mueller-Hinton medium, 24 h at 37° C.
Outline: (§1)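 Broth microdilution in Mueller-Hinton medium; compounds from 5 mg/mL stock in DMSO/methanol (50/50), twofold serial dilutions, inoculum adjusted to OD 0.01. Plates incubated 24 h at 37 °C, humid atmosphere; OD read at 620 nm to derive MIC, duplicates.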

[2] = system: P. aeruginosa Human ATCC 27853; test: MIC determination, P. aeruginosa human ATCC 27853; assay type: cell-based; conditions: Pseudomonas aeruginosa, ATCC27853; Gram-negative; Mueller-Hinton medium, 24 h at 37° C.
Outline: as §1

[3] = system: P. aeruginosa (1051575); test: Potentiation of ampicillin activity (combination MIC); assay type: cell-based, Pseudomonas aeruginosa; conditions: ampicillin 4 μg/mL; concentration of compound required to restore antibiotic activity
Protocol: This method requires the use of a 96-well plate: 100 μL of a liquid culture medium are placed in each well and then seeded with the microbial suspension prepared previously. The required volume to be seeded is calculated for an OD of 0.01, which corresponds to about 5×10^6 bacteria in each well. In this plate, the first line corresponds to a negative control (200 μL of sterile culture medium in each well), the second line corresponds to a positive control (100 μL of sterile culture medium+100 μL of the bacterial suspension), and the third line contains 192 μL of culture medium; 8 μL of compound of formula (I) to be tested are placed in each well. Thereafter, a cascade dilution is performed from this line. […] 92 μL of bacterial suspension are then added to lines 3 to 8. The results are read (the determination of the MIC (2 μg/mL of doxycycline) in the presence of X g/mL of compound of formula (I)) after 24 hours of incubation at 37° C. under a humid atmosphere. After 24 hours of incubation at 37° C., 40 μL of nitro tetrazolium iodide are added to each well to reveal the presence of live bacteria by staining the medium pink.
The procedure is identical to that indicated in Example 5 above. […]
The results are given in table V. They indicate the concentration of compound of formula (I) required to be able to restore the activity of the antibiotic under consideration.

[4] = system: C. albicans; test: Antifungal activity, cascade microdilution; assay type: cell-based; conditions: Candida albicans, 24 h, read-out: IC50 (μg/mL) C. albicans
[5] = system: S. intermedius Animal (1051997); test: MIC determination, S. intermedius animal (1051997); assay type: cell-based; conditions: Staphylococcus intermedius; Gram-positive; Mueller-Hinton medium, 24 h at 37° C.
Outline: as §1

[6] = system: CHO-K1 cells; test: WST1 cytotoxicity test on CHO-K1 cells; assay type: cell-based, Chinese hamster; conditions: Cricetulus griseus
Outline: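 CHO-K1 cells pre-grown 24 h, then exposed to increasing compound concentrations in duplicate for 24 h at 37° C, 5% CO2. Viability read after 20 min with 10% WST-1 in PBS at 450 nm; IC50 from nonlinear regression as concentration cutting viability 50%.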

[7] = system: E. coli Human ATCC 28922; test: MIC determination, E. coli human ATCC 28922; assay type: cell-based; conditions: Escherichia coli, ATCC28922; Gram-negative; Mueller-Hinton medium, 24 h at 37° C.
Outline: as §1

[8] = system: E. coli Animal (1956); test: MIC determination, E. coli animal (1956); assay type: cell-based; conditions: Escherichia coli; Gram-negative; Mueller-Hinton medium, 24 h at 37° C.
Outline: as §1

[9] = system: E. faecalis Human ATCC 29212; test: MIC determination, E. faecalis human ATCC 29212; assay type: cell-based; conditions: Enterococcus faecalis, ATCC29212; Gram-positive; Mueller-Hinton medium, 24 h at 37° C.
Outline: as §1

[10] = system: S. aureus Animal (340); test: MIC determination, S. aureus animal (340); assay type: cell-based; conditions: Staphylococcus aureus; Gram-positive; Mueller-Hinton medium, 24 h at 37° C.
Outline: as §1

[11] = CHO-K1, 24 h, read-out: IC50 (μg/mL) CHO
[12] = CHO-K1, read-out: IC50 (μg/mL) CHO

Row | Compound | MIC [1] [µg/mL] | MIC [2] [µg/mL] | MIC P. aeruginosa (1051575) compound + ampicillin [3] [µg/mL] | IC50 [4] [µg/mL] | MIC [5] [µg/mL] | IC50 [6, 11] [µg/mL] | IC50 [6, 12] [µg/mL] | MIC [7] [µg/mL] | MIC [8] [µg/mL] | MIC [9] [µg/mL] | MIC [10] [µg/mL]
1 | CC(C)NC(=O)CC[C@@H](C)[C@H]1CCC2C3C(C[C@H](O)[C@@]21C)[C@@]1(C)CC[C@H](NCCCNCCCN)CC1C[C@H]3O (stereo partly drawn) [(5), 3β-norspermidino-N-isopropylcholamide] | 8 (≈ 14.2 µM) | 64 (≈ 114 µM) | 64 | 4 (≈ 7.11 µM) | 4 (≈ 7.11 µM) | 70 (≈ 124 µM) | 70 (≈ 124 µM) | 16 (≈ 28.4 µM) | 32 (≈ 56.9 µM) | 16 (≈ 28.4 µM) | 16 (≈ 28.4 µM)
2 | CC(C)NC(=O)CC[C@@H](C)[C@H]1CCC2C3C(CC[C@@]21C)[C@@]1(C)CC[C@H](NCCCNCCCNCCCN)CC1C[C@H]3O (stereo partly drawn) [(7), 3β-norspermino-N-isopropylchenodeoxycholamide] | 4 (≈ 6.62 µM) | 30 (≈ 49.7 µM) | 15 | – | 1 (≈ 1.66 µM) | 55 (≈ 91.1 µM) | – | 15 (≈ 24.8 µM) | 8 (≈ 13.2 µM) | 4 (≈ 6.62 µM) | 2 (≈ 3.31 µM)
3 | CC(C)NC(=O)CC[C@@H](C)[C@H]1CCC2C3C(CC[C@@]21C)[C@@]1(C)CC[C@H](NCCCNCCCN)CC1C[C@H]3O (stereo partly drawn) [(8), 3β-norspermidino-N-isopropylchenodeoxycholamide] | 6 (≈ 11 µM) | 54 (≈ 98.7 µM) | 27 | 1 (≈ 1.83 µM) | 1 (≈ 1.83 µM) | 50 (≈ 91.4 µM) | 50 (≈ 91.4 µM) | 14 (≈ 25.6 µM) | 14 (≈ 25.6 µM) | 8 (≈ 14.6 µM) | 3 (≈ 5.49 µM)
4 | CC(C)NC(=O)CC[C@@H](C)[C@H]1CCC2C3C(CC[C@@]21C)[C@@]1(C)CC[C@H](NCCCNCCCN)CC1C[C@@H]3O (stereo partly drawn) [(15), 3β-norspermidino-N-isopropylursodeoxycholamide] | 28 (≈ 51.2 µM) | 56 (≈ 102 µM) | 110 | 14 (≈ 25.6 µM) | 7 (≈ 12.8 µM) | 140 (≈ 256 µM) | 85 (≈ 155 µM) | 56 (≈ 102 µM) | 112 (≈ 205 µM) | 112 (≈ 205 µM) | 56 (≈ 102 µM)
5 | CC(C)NC(=O)CC[C@@H](C)[C@H]1CCC2C3CCC4C[C@@H](NCCCN(C)CCCN)CC[C@]4(C)C3C[C@H](O)[C@@]21C (stereo partly shown) [(25)] | 7 (≈ 12.5 µM) | 28 (≈ 49.9 µM) | 56 | – | 2 (≈ 3.57 µM) | 48 (≈ 85.6 µM) | – | 14 (≈ 25 µM) | 14 (≈ 25 µM) | 14 (≈ 25 µM) | 14 (≈ 25 µM)
6 | CC(C)NC(=O)CC[C@@H](C)[C@H]1CCC2C3C(CC[C@@]21C)[C@@]1(C)CC[C@H](NCCCN(C)CCCN)CC1C[C@H]3O (stereo partly drawn) [(27), 3β-(bis(3-aminopropyl)methylamine)-N-isopropylchenodeoxycholamide] | 8 (≈ 14.3 µM) | 32 (≈ 57 µM) | 64 | 2 (≈ 3.57 µM) | 4 (≈ 7.13 µM) | 100 (≈ 178 µM) | 100 (≈ 178 µM) | 16 (≈ 28.5 µM) | 32 (≈ 57 µM) | 16 (≈ 28.5 µM) | 8 (≈ 14.3 µM)
7 | CC(C)NC(=O)CC[C@@H](C)[C@H]1CCC2C3CCC4C[C@@H](NCCCNCCCN)CC[C@]4(C)C3C[C@H](O)[C@@]21C (stereo partly drawn) [Compound (2), 3β-norspermidino-N-isopropyldeoxycholamide] | 4 (≈ 7.31 µM) | 28 (≈ 51.2 µM) | 28 | – | 1 (≈ 1.83 µM) | 35 (≈ 64 µM) | – | 14 (≈ 25.6 µM) | 14 (≈ 25.6 µM) | 14 (≈ 25.6 µM) | 2 (≈ 3.66 µM)
8 | CC(C)NC(=O)CC[C@@H](C)[C@H]1CCC2C3C(CC[C@@]21C)[C@@]1(C)CC[C@H](NCCCNCCCCNCCCN)CC1C[C@@H]3O (stereo partly drawn) [Compound (35), 3β-spermino-N-isopropylursodeoxycholamide] | 16 (≈ 25.9 µM) | 32 (≈ 51.8 µM) | 64 | 1 (≈ 1.62 µM) | 8 (≈ 12.9 µM) | 55 (≈ 89 µM) | 55 (≈ 89 µM) | 64 (≈ 104 µM) | 64 (≈ 104 µM) | 64 (≈ 104 µM) | 16 (≈ 25.9 µM)

— patent US10780101B2, “Amide derivatives of squalamine for the treatment of infections” (VIRBAC, priority 2016, dated 2020)
